Assays:
[1] = Stability in mouse plasma assessed as compound remaining at 2 uM measured after 2 hrs by LC-MS/MS analysis; format: ADME, cell-free; conditions: read-out: Stability
[2] = molecular target: Fibroblast growth factor receptor 1 (Homo sapiens, UniProt P11362); assay: Inhibition of recombinant human His-tagged FGFR1 cytoplasmic domain (308 to 731 residues) expressed in baculovirus expression system using tyr 04 as substrate measured within 60 mins by Z-LYTE assay
[3] = Stability in human plasma assessed as compound remaining at 2 uM measured after 2 hrs by LC-MS/MS analysis; format: ADME, cell-free; conditions: read-out: Stability
[4] = Intrinsic clearance in human liver microsomes at 1 uM measured after 60 mins in presence of NADPH by LC-MS/MS analysis; format: ADME, microsome; conditions: read-out: CLH
[5] = Intrinsic clearance in mouse liver microsomes at 1 uM measured after 60 mins in presence of NADPH by LC-MS/MS analysis; format: ADME, microsome; conditions: read-out: CLH
[6] = molecular target: Fibroblast growth factor receptor 4 (Homo sapiens, UniProt P22455); assay: Inhibition of recombinant human N-terminal His-tagged FGFR4 cytoplasmic domain […] expressed in baculovirus expression system using tyr 04 peptide as substrate measured within 90 mins by Z-LYTE assay
Chain of Fibroblast growth factor receptor 4 (P22455 whole entry, the tested form may be a part): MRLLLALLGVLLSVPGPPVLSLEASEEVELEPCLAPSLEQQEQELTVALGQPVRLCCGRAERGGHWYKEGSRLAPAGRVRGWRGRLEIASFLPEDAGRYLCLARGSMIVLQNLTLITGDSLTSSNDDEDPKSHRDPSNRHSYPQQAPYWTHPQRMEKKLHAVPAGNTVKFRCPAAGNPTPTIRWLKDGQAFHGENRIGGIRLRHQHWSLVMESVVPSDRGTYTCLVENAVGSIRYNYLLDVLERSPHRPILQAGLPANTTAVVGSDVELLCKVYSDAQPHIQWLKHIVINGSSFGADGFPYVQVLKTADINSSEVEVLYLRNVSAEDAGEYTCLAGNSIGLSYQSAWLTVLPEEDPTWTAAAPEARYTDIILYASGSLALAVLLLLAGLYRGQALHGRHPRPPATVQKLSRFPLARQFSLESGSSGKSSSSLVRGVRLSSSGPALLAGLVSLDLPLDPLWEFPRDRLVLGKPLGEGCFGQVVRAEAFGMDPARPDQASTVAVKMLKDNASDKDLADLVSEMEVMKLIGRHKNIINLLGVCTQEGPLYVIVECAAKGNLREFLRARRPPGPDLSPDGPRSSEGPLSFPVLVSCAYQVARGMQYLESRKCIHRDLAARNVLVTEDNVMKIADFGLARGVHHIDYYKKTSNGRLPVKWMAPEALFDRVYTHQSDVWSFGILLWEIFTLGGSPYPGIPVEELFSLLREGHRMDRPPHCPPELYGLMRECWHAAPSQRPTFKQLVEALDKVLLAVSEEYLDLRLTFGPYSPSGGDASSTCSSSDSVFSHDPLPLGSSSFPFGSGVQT

Chain of Fibroblast growth factor receptor 1 (P11362 whole entry, the tested form may be a part): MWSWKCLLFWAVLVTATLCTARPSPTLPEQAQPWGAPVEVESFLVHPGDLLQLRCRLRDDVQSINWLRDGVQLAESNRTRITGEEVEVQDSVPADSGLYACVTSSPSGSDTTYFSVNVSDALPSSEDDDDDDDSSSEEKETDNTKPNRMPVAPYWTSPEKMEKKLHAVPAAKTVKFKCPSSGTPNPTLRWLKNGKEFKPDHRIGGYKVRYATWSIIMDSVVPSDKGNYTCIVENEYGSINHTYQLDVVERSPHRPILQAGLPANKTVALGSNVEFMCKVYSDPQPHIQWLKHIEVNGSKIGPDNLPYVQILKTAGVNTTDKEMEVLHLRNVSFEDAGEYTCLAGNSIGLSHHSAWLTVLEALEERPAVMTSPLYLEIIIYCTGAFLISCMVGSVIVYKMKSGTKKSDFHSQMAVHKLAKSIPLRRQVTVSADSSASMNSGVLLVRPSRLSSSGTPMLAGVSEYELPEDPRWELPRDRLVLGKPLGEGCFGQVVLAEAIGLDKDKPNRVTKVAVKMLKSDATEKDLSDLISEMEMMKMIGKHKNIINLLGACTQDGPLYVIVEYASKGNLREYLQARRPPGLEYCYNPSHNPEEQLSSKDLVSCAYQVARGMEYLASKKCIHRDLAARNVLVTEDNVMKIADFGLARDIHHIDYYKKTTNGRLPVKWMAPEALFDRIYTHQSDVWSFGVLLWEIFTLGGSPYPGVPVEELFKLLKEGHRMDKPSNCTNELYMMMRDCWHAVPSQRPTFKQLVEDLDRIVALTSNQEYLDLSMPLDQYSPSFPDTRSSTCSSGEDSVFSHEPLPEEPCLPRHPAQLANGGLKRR

Row | SMILES | remaining at 2 h, 2 µM [1] [%] | IC50 [2] [µM] | remaining at 2 h, 2 µM [3] [%] | CLint scaled at 1 µM [4] [mL/min/kg] | CLint scaled at 1 µM [5] [mL/min/kg] | IC50 [6] [µM]
1 | C=CC(=O)Nc1cccc(C)c1Nc1ncc(OCc2c(Cl)c(OC)cc(OC)c2Cl)cn1 | 0.2 |  |  |  |  | 
2 | C=CC(=O)N[C@H]1CCCC[C@H]1Nc1ncc(OCc2c(F)c(OC)cc(OC)c2F)cn1 (racemic) | 96 | 3.3 | 96 | 154 | 2030 | 
3 | C=CC(=O)Nc1cc(N2CCN(C(C)=O)CC2)cc(C)c1Nc1ncc(OCc2c(F)c(OC)cc(OC)c2F)cn1 | 0.3 | 9.5 |  | 265 | 220 | 
4 | C=CC(=O)Nc1cccc(C)c1Nc1ncc(OC(C)c2c(Cl)c(OC)cc(OC)c2Cl)cn1 (configuration not stated) |  | > 10 |  |  |  | > 10
5 | C=CC(=O)Nc1cc(N2CCN(CC)CC2)cc(C)c1Nc1ncc(OCc2c(F)c(OC)cc(OC)c2F)cn1 | 0.1 | 2.9 |  | 120 | 180 | 
6 | C=CC(=O)N[C@@H]1COC[C@@H]1Nc1ncc(OCc2c(F)c(OC)cc(OC)c2F)cn1 |  | 7.4 |  |  |  | 3.5

The remaining lines, values ahead:

Row | remaining at 2 h, 2 µM [1] [%] | IC50 [2] [µM] | remaining at 2 h, 2 µM [3] [%] | CLint scaled at 1 µM [4] [mL/min/kg] | CLint scaled at 1 µM [5] [mL/min/kg] | IC50 [6] [µM] | SMILES
7 | 100 | > 10 | 90 | 46 | 564 |  | C=CC(=O)N[C@H]1CCOC[C@H]1Nc1ncc(OCc2c(F)c(OC)cc(OC)c2F)cn1
8 |  | 0.06 |  |  |  |  | C=CC(=O)Nc1ccccc1Nc1ncc(OCc2c(F)c(OC)cc(OC)c2F)cn1
9 | 0.4 | 4.8 |  |  |  |  | C=C(C)C(=O)Nc1cc(N2CCN(CC)CC2)cc(C)c1Nc1ncc(OCc2c(F)c(OC)cc(OC)c2F)cn1
10 |  | > 10 |  |  |  |  | C=CC(=O)Nc1cccc(C)c1Nc1ncc(OCc2cc(OC)cc(OC)c2)cn1

Source: ChEMBL document CHEMBL4017480, “Discovery and optimization of selective FGFR4 inhibitors via scaffold hopping” (Bioorg Med Chem Lett, 2017)
